“And” between values parts separate entries of the source, which are not always exact repeats. Identical values can stand only once. Counter-ions that a name gives are not always drawn.
Tested on: dopamine release in the rat prefrontal cortex
Assay: Microdialysis: dopamine release in prefrontal cortex after I.P. administration
Type: in vivo
Details: for DOPAMINE (% of respective basal), individual animal: 0.1 mg/kg I.P., c2-c9 = R#13,14,20,19,25,26,31,32; for DOPAMINE (% of respective basal), individual animal / Dopamine release, individual animals: hydrochloride; for Dopamine release, MEAN / Dopamine release, individual animals: 0.3 mg/kg I.P.; for Dopamine release, MEAN: n = 8; for Dopamine release, individual animals: one column per animal R#11,12,18,23,29,30,17,24
Procedure: The aim of the study was to evaluate, using microdialysis, the effects of an intraperitoneal (I.P.) administration in rats of three different doses of SON-117 on dopamine and its metabolites, serotonin and its metabolite (5-HIAA), and norepinephrine levels in prefrontal cortex.
Thirty-two adult male Wistar rats were used for the whole study (4 groups of eight animals planned for the study, Table 1).
Surgery was performed on rats weighing about 300 g at the beginning of the experiments. Rats were anaesthetized with Ketamine (50 mg/kg) & Xylazine (15 mg/kg) by intramuscular administration. The animals were placed in a stereotaxic apparatus in the flat-skull position at a constant setting of −3.3 mm between ear bars and the incisor bar. The animals were treated with a local anesthesic (xylocaine 1%, Astra Zeneca) and an analgesic (Temgesic, from Schering Plough, 0.05 mg/kg, s.c.). A rostrocaudal midline incision was made with a lancet to expose the dorsal skull surface. The “stereotaxic zero” was defined by the Bregma in accordance with Paxinos and Watson's atlas (1986). A hole was drilled in the skull with a drill and the meninges were pierced with a sterile needle to implant a CMA12 guide cannula which later received the dialysis probe.
Coordinates used for implanting guide cannula in prefrontal cortex from Bregma were anteroposterior 3.7 mm, mediolateral 0.8 mm, and dorsoventral −2 mm (top of the probe was at −5 mm). The guide cannula was fixed to the skull with two stainless steel screws (1.88 mm outside diameter) anchored. An application of dental cement was added. A plastic collar allowed each animal to be tethered to a Swivel assembly of the CMA 120 awake animal system. Following surgery, rats were kept in individual cages and allowed to recover for a minimum of 3-5 days before the experimentation. The rats were handled and put in plastic bowl for 10 min at least every day to habituate the animals to their new environment for the dialysis. An I.P. administration with saline was also performed every day.
Dialysis probes (CMA12/3 mm, membrane, 20 kD cut-off, Carnegie Medicine, Stockholm, Sweden), were carefully washed before inserting into the guide cannula. The wash was performed with the artificial cerebrospinal fluid (aCSF) medium (NaCl 147 mM, KCl 2.7 mM, CaCl2 1.2 mM, MgCl2 0.85 mM) at room temperature. The dialysis system was then equilibrated at 20° C. at a perfusion rate of 1 μl/min with a Carnegie pump (CMA100). All catheters (FEP tubing, internal volume of 1.2 μl/10 cm, and tubing adaptors) used for microdialysis were treated in the same conditions.
The probes duly prepared were inserted into the guide cannula and the CMA120 Swivel assembly secured to the animal using a plastic collar. Flow through the dialysis probe with aCSF was maintained at a rate of 1 μl/min during the whole experimentation. The first four fractions (corresponding to 2 hours) were discarded to avoid the effects of parenchymal disturbance and to ensure that an approximate steady-state level was reached. Fractions were then collected over a period of 8.5 h during which time the animals remained quiet. The dialysates were automatically collected with an autosampler (microfraction collector CMA 140, Carnegie Medicin) and stored at −80° C. until analysis. […] Perfusion was then maintained for 7 hours with aCSF. The dialysates (30 μl) were collected into 300 μl vials, transferred into dry ice and then kept frozen (−80° C.) until analysis. Frozen samples were shipped to a partner for analysis. At the end of the microdialysis study, a PBS with colored ink was perfused through the probe in order to visualize the dialyzed area.
Catecholamine assay: Concentrations of dopamine, DOPAC, HVA, 5-HIAA, 5-HT, and norepinephrin were determined for each sample by HPLC coupled with electrochemical detection.

Question: What does the source list for `Cc1nnc(-c2cc3c(OC[C@@H](O)CN4CCC(c5ccc(Cl)c(Cl)c5)CC4)cccc3o2)o1` [SON-117, (S)-1-(4-(3,4-dichlorophenyl)piperidino)-3-(2-(5-methyl-1,3,4-oxadiazol-2-yl)benzo(b)furan-4-yloxy)-2-propanol hydrochloride]?
Answer: DOPAMINE (% of respective basal), individual animal (T30-T1 h): 78.42 % of respective basal and 144.00 % of respective basal and 128.77 % of respective basal and 71.43 % of respective basal and 151.01 % of respective basal and 47.86 % of respective basal and 101.52 % of respective basal; DOPAMINE (% of respective basal), individual animal (T1 h 30-T2 h): 36.00 % of respective basal and 142.72 % of respective basal and 334.21 % of respective basal and 140.61 % of respective basal and 189.68 % of respective basal and 109.22 % of respective basal and 110.24 % of respective basal; DOPAMINE (% of respective basal), individual animal (T1 h-T1 h 30): 48.68 % of respective basal and 33.57 % of respective basal and 218.55 % of respective basal and 176.05 % of respective basal and 99.52 % of respective basal and 198.57 % of respective basal and 106.01 % of respective basal and 103.54 % of respective basal; DOPAMINE (% of respective basal), individual animal (T2 h 30-T3 h): 23.71 % of respective basal and 100.08 % of respective basal and 315.3 % of respective basal and 95.2 % of respective basal and 171.39 % of respective basal and 293.73 % of respective basal and 72.19 % of respective basal and 35.99 % of respective basal; DOPAMINE (% of respective basal), individual animal (T2 h-T2 h 30): 84.44 % of respective basal and 172.82 % of respective basal and 179.35 % of respective basal and 87.73 % of respective basal and 1288.95 % of respective basal and 305.56 % of respective basal and 131.13 % of respective basal and 45.72 % of respective basal; DOPAMINE (% of respective basal), individual animal (T3 h 30-T4 h): 23.36 % of respective basal and 145.75 % of respective basal and 464.25 % of respective basal and 43.13 % of respective basal and 194.11 % of respective basal and 295.73 % of respective basal and 45.38 % of respective basal and 34.94 % of respective basal; DOPAMINE (% of respective basal), individual animal (T3 h-T3 h 30): 40.16 % of respective basal and 117.963 % of respective basal and 93.88 % of respective basal and 47.74 % of respective basal and 225.34 % of respective basal and 586.07 % of respective basal and 48.38 % of respective basal and 40.61 % of respective basal; DOPAMINE (% of respective basal), individual animal (T4 h 30-T5 h): 196.31 % of respective basal and 152.43 % of respective basal and 409.91 % of respective basal and 45.90 % of respective basal and 293.48 % of respective basal and 662.65 % of respective basal and 73.568 % of respective basal and 92.51 % of respective basal; DOPAMINE (% of respective basal), individual animal (T4 h-T4 h 30): 91.54 % of respective basal and 75.24 % of respective basal and 423.55 % of respective basal and 28.53 % of respective basal and 308.40 % of respective basal and 676.86 % of respective basal and 63.428 % of respective basal and 58.94 % of respective basal; DOPAMINE (% of respective basal), individual animal (T5 h 30-T6 h): 107.62 % of respective basal and 109.11 % of respective basal and 218.37 % of respective basal and 42.54 % of respective basal and 135.41 % of respective basal and 709.30 % of respective basal and 42.94 % of respective basal and 140.37 % of respective basal; DOPAMINE (% of respective basal), individual animal (T5 h-T5 h 30): 110.75 % of respective basal and 148.81 % of respective basal and 228.76 % of respective basal and 47.98 % of respective basal and 200.12 % of respective basal and 601.17 % of respective basal and 21.81 % of respective basal and 112.11 % of respective basal; DOPAMINE (% of respective basal), individual animal (T6 h 30-T7 h): 78.29 % of respective basal and 188.44 % of respective basal and 933.712 % of respective basal and 63.21 % of respective basal and 1205.29 % of respective basal and 126.67 % of respective basal; DOPAMINE (% of respective basal), individual animal (T6 h-T6 h 30): 130.81 % of respective basal and 238.5 % of respective basal and 88.84 % of respective basal and 62.29 % of respective basal and 146.28 % of respective basal and 882.60 % of respective basal and 95.56 % of respective basal and 166.52 % of respective basal; Dopamine release, MEAN (T0-T30 min): 128.24 % of respective basal; Dopamine release, MEAN (T30-T1 h): 131.35 % of respective basal; Dopamine release, individual animals (T30-T1 h): 103.18 % of respective basal and 54.05 % of respective basal and 146.65 % of respective basal and 93.66 % of respective basal and 168.96 % of respective basal and 281.64 % of respective basal and 59.20 % of respective basal and 143.48 % of respective basal; Dopamine release, MEAN (T1 h 30-T2 h): 90.06 % of respective basal; Dopamine release, individual animals (T1 h 30-T2 h): 91.90 % of respective basal and 29.89 % of respective basal and 33.64 % of respective basal and 64.84 % of respective basal and 106.30 % of respective basal and 119.82 % of respective basal and 81.21 % of respective basal and 192.86 % of respective basal; Dopamine release, MEAN (T1 h-T1 h 30): 94.40 % of respective basal; Dopamine release, individual animals (T1 h-T1 h 30): 50.19 % of respective basal and 44.28 % of respective basal and 51.46 % of respective basal and 70.10 % of respective basal and 123.34 % of respective basal and 256.96 % of respective basal and 56.09 % of respective basal and 102.79 % of respective basal; Dopamine release, MEAN (T2 h 30-T3 h): 95.29 % of respective basal; Dopamine release, individual animals (T2 h 30-T3 h): 53.62 % of respective basal and 111.85 % of respective basal and 131.64 % of respective basal and 82.81 % of respective basal and 130.53 % of respective basal and 91.04 % of respective basal and 42.56 % of respective basal and 118.24 % of respective basal; Dopamine release, MEAN (T2 h-T2 h 30): 112.22 % of respective basal; Dopamine release, individual animals (T2 h-T2 h 30): 78.18 % of respective basal and 201.28 % of respective basal and 102.58 % of respective basal and 57.76 % of respective basal and 140.27 % of respective basal and 171.47 % of respective basal and 131.71 % of respective basal and 14.48 % of respective basal; Dopamine release, MEAN (T3 h 30-T4 h): 131.87 % of respective basal; Dopamine release, individual animals (T3 h 30-T4 h): 348.64 % of respective basal and 164.63 % of respective basal and 39.78 % of respective basal and 87.76 % of respective basal and 122.97 % of respective basal and 30.76 % of respective basal and 128.55 % of respective basal; Dopamine release, MEAN (T3 h-T3 h 30): 133.65 % of respective basal; Dopamine release, individual animals (T3 h-T3 h 30): 263.92 % of respective basal and 284.14 % of respective basal and 32.71 % of respective basal and 88.53 % of respective basal and 186.05 % of respective basal and 14.29 % of respective basal and 65.93 % of respective basal; Dopamine release, MEAN (T4 h 30-T5 h): 99.61 % of respective basal; Dopamine release, individual animals (T4 h 30-T5 h): 204.04 % of respective basal and 138.52 % of respective basal and 77.42 % of respective basal and 28.77 % of respective basal and 97.45 % of respective basal and 26.06 % of respective basal and 62.98 % of respective basal and 161.60 % of respective basal; Dopamine release, MEAN (T4 h-T4 h 30): 126.41 % of respective basal; Dopamine release, individual animals (T4 h-T4 h 30): 99.34 % of respective basal and 210.06 % of respective basal and 195.26 % of respective basal and 40.10 % of respective basal and 119.18 % of respective basal and 52.10 % of respective basal and 159.91 % of respective basal and 135.30 % of respective basal; Dopamine release, MEAN (T5 h 30-T6 h): 263.98 % of respective basal

— patent publication US20250109127A1, “METHODS OF USE OF PHENOXYPROPYLAMINE COMPOUNDS TO TREAT DEPRESSION” (Minerva Neurosciences, Inc., priority 2013, published 2025)
